Read-outs that look alike come from different tables or passages of the source.
Tests used:
[1] = system: murine melanoma B16 cancer cells; details: 1×10^5 B16 cells, mean (SEM)
Protocol: The mice were infected with 1×10^5 murine melanoma B16 cancer cells by tail vein injection. […] The second group of mice was treated with the same SP dose starting at one week post-injection for seven days. Survival was assessed to determine the effect of SP aerosol therapy in prolonging life when mice are challenged with a massive cancer challenge.

[2] = system: murine melanoma B16 cancer cells; assay: B16 melanoma lung tumor colonies after tail vein injection; assay type: in vivo, mice; details: for mean number of tumor colonies observed in both lungs: 1×10^4 B16 cells/mouse, 4 weeks post-injection; for reduction in tumors: versus controls
Source text: The mice were infected with syngeneic murine melanoma B16 cancer cells by tail vein injection. The dose was 1×10^4 B16 tumor cells/mouse. […] The second group of mice was given their substance P aerosol therapy starting one week after the injection of the B16 cells. The aerosol therapy lasted for one week. Both groups of mice and their corresponding controls (injection with B16 cells and no substance P therapy) were killed at 4 weeks post-injection with B16 cells. The data is presented as the mean number of tumor colonies observed in both lungs.

immune system organs = assay: Organ weight and total cell recovery; assay type: in vivo, C57B16 mice; design: Spleen Cell Number / Thymus Cell Number / LN Cell Number / BM Cell Number: scale not given here; Spleen Weight / Thymus Weight: unit not given here
Protocol: (§1) At 24 hours after the last exposure, the animals were sacrificed and the effects of exposure on the immune system examined. Immune organs (spleen, thymus, blood, lymph nodes and bone marrow) were recovered and analyzed for effects on organ weight, total cell numbers, immune cell populations (by differentials), and lymphocyte subpopulations (by flow cytometry). Assays were also performed to examine the effects of exposure on immune function. […] Similar effects on immune cell subpopulations were also observed in lymph nodes. In the thymus it appeared that the immature CD4^+ CD8^+ cells were differentially lost due to exposure. […] However, these effects are prevented or ameliorated by treatment of the animals with Substance P.
For each of the immune system organs (spleen, lymph nodes and thymus) the wet weight is determined after removal using a microbalance. After processing of the organs into single cell suspensions the cell numbers and viabilities are determined using trypan blue staining. Histochemical differentials are performed at this time. Cell numbers and viabilities are again determined after centrifugation of the cell suspensions through density gradients to obtain mononuclear cells.

immune system = assay: Immunotoxicology of exposure to jet fuel JP-8; assay type: in vivo, C57B16 mice; details: JP-8 exposed animals treated with Substance P
Protocol: as §1

[3] = system: spleen, thymus and bone marrow cells; assay: JP-8 jet fuel exposed mice, cell numbers (FIGS. 1-3); assay type: in vivo, C57BL6 mice; details: 1 micromolar aerosol 15 minutes after each exposure
Source text: Since mice are nose-breathers, they were exposed to the aerosol/vapor mixture via nose-only presentation while they were held in individual loading tubes. The tubes were nose-fitted to receiving adaptors that originated from the common anodized aluminum exposure chamber (volume 0.3 m^3, IN-TOX, Albuquerque, N. Mex.). Noses were positioned in the exposure ports to minimize systemic absorption that might occur during total body exposure or through the process of self-grooming after exposure. The mice were rotated on a daily basis through the 24-adaptor positions of the exposure chamber. This was done to minimize proximity to the jet fuel source as a variable in exposure concentration or composition. Passive entrainment of the jet fuel aerosol/vapor mix and room air through the IN-TOX chamber was conducted by vacuum (15 liters/min). The vacuum was applied to the exposure chamber on the side opposite the fuel source. Animal exposure ports not in use were sealed during the exposure period. Longitudinal controls were sham-exposed in a manner identical to those receiving jet fuel, except that only room air was introduced into the exposure chamber. The exposure chamber was thoroughly cleaned prior to the longitudinal control group's exposure.
The substance P aerosol therapy was performed at the completion of the JP-8 jet fuel exposure. The nebulizer was modified with clean hoses and a new sonication crucible. […] The substance P aerosol therapy was conducted for the same seven day period over a total time period of nine days as the JP-8 jet fuel exposure regimen.

Spleen T Cell = assay: Mitogenesis of spleen T cells, LP-BM5 mouse AIDS model; assay type: in vivo, C57BL6 mice
Protocol: (§2) C57BL6 mice, average weight of 25-30 grams, were infected with the LP-BM5 murine leukemia retrovirus to simulate the human AIDS virus. […] The mice were divided into two groups; LP-BM5 virus only and LP-BM5 virus+substance P aerosol therapy at 1 μM concentration. The mice were killed at 4 and 8 weeks postinoculation.
The proliferation of splenic B and T cells induced by mitogens was determined by incorporation of radioactive thymidine. Splenocytes in 0.1 ml of cell culture medium (1×10 ^7 cells/ml) were cultured in 96-well flat-bottom cultured plates with ConA and lipopolysaccharide, 5 micrograms/ml). […] After 4 hours for radioactive thymidine uptake, the cells were harvested by a cell sample harvester. Radioactivity was determined by a liquid scintillation counter (Tri-Carb, 2200CA). The T and B cell mitogenesis values were recorded as counts per min in 1×10^7 cells/ml.

Spleen B Cell = assay: Mitogenesis of spleen B cells, LP-BM5 mouse AIDS model; assay type: in vivo, C57BL6 mice
Protocol: as §2
The proliferation of splenic B and T cells induced by mitogens was determined by incorporation of radioactive thymidine. Splenocytes in 0.1 ml of cell culture medium (1×10 ^7 cells/ml) were cultured in 96-well flat-bottom cultured plates with ConA and lipopolysaccharide, 5 micrograms/ml). The cells were incubated at 37° C., 5% CO2 incubator for 72 hours for ConA-induced T cell proliferation, and then pulsed with ^3 H-thymidine (1 microCurie/well). After 4 hours for radioactive thymidine uptake, the cells were harvested by a cell sample harvester. Radioactivity was determined by a liquid scintillation counter (Tri-Carb, 2200CA). The T and B cell mitogenesis values were recorded as counts per min in 1×10^7 cells/ml.

[4] = JP-8 1000 mg/m^3 + SP, nSP (1 nM), CP or RP
[5] = 4 weeks after LP-BM5 infection, SP aerosol 1 μM 3 days/week, 25 Hours in Culture
[6] = 4 weeks after LP-BM5 infection, SP aerosol 1 μM 3 days/week, 48 Hours in Culture
[7] = 4 weeks after LP-BM5 infection, SP aerosol 1 μM 3 days/week, 72 Hours in Culture
[8] = 8 weeks post-infection with LP-BM5, SP aerosol 1 μM, 72 hours in culture

Substance P [SP]
Days alive after B16 cells ([1]; 1 μM SP aerosol 15 min/day 7 days starting immediately): 31.5 (3.8) Days
Days alive after B16 cells ([1]; SP aerosol 7 days starting one week after B16 cells): 26.0 (2.0) Days
mean number of tumor colonies observed in both lungs ([2]; 1 μM SP aerosol 15 min/day 7 days starting immediately (next day)): 39
mean number of tumor colonies observed in both lungs ([2]; SP aerosol for one week starting one week after injection): 1
reduction in tumors ([2]; therapy starting immediately after B16 cells injection): 62.9%
reduction in tumors ([2]; therapy starting one week after B16 cells injection): 97.0%
BM Cell Number (immune system organs; JP-8 250 mg/m^3 + SP): 23
LN Cell Number (immune system organs; JP-8 250 mg/m^3 + SP): 10.8
Spleen Cell Number (immune system organs; JP-8 250 mg/m^3 + SP): 40
Spleen Weight (immune system organs; JP-8 250 mg/m^3 + SP): 0.16
Thymus Cell Number (immune system organs; JP-8 250 mg/m^3 + SP): 70
Thymus Weight (immune system organs; JP-8 250 mg/m^3 + SP): 0.06
BM Cell Number (immune system organs; [4]): 21
LN Cell Number (immune system organs; [4]): 5.0
Spleen Cell Number (immune system organs; [4]): 72
Spleen Weight (immune system organs; [4]): 0.14
Thymus Cell Number (immune system organs; [4]): 78
Thymus Weight (immune system organs; [4]): 0.11
BM Cell Number (immune system organs; JP-8 2500 mg/m^3 + SP): 19
LN Cell Number (immune system organs; JP-8 2500 mg/m^3 + SP): 5.0
Spleen Cell Number (immune system organs; JP-8 2500 mg/m^3 + SP): 87
Spleen Weight (immune system organs; JP-8 2500 mg/m^3 + SP): 0.10
Thymus Cell Number (immune system organs; JP-8 2500 mg/m^3 + SP): 96
Thymus Weight (immune system organs; JP-8 2500 mg/m^3 + SP): 0.08
reversal of effects of JP-8 exposure on the immune system (immune system organs; Substance P at both 1 uM and 1 nM doses): significantly reversed
BM Cell Number (immune system organs; dose 0 (no JP-8) + SP or CP): 9
Spleen Cell Number (immune system organs; dose 0 (no JP-8) + SP or CP): 30
Spleen Weight (immune system organs; dose 0 (no JP-8) + SP or CP): 0.10
Thymus Cell Number (immune system organs; dose 0 (no JP-8) + SP or CP): 18
Thymus Weight (immune system organs; dose 0 (no JP-8) + SP or CP): 0.04
reversal of effects of JP-8 exposure on all measured parameters (immune system): invariably reversed the effects on all measured parameters of JP-8 exposure to almost normal levels
effect on spleen cell number (FIG. 1) ([3]; JP-8 500 or 2500 mg/m^3 7 days): totally reverse the effect of the jet fuel on the spleen cell number
effect on bone marrow cells (FIG. 3) ([3]; JP-8 exposed mice): augments the stimulation substantially
effect on thymus cell number (FIG. 2) ([3]; JP-8 exposed mice): substantially reverses the effect on cell number
Spleen T Cell Mitogenesis (Spleen T Cell; [5]): 2963 (56) counts per min
Spleen T Cell Mitogenesis (Spleen T Cell; [6]): 2769 (23) counts per min
Spleen T Cell Mitogenesis (Spleen T Cell; [7]): 4362 (69) counts per min
Spleen T Cell Mitogenesis (Spleen T Cell; [8]): 3127 (77) counts per min
Spleen B Cell Mitogenesis (Spleen B Cell; [5]): 2063 (448) counts per min
Spleen B Cell Mitogenesis (Spleen B Cell; [6]): 1369 (231) counts per min
Spleen B Cell Mitogenesis (Spleen B Cell; [7]): 1642 (158) counts per min
Spleen B Cell Mitogenesis (Spleen B Cell; [8]): 3227 (854) counts per min

Source: patent publication US5945508A, “Substance P treatment for immunostimulation” (priority 1997, dated 1999)
